Test results reported in EP0028279A1, “Phthalide-isoquinoline derivatives, their preparation and their use in medicaments” (CALAIRE CHIMIE S.A., priority 1979, dated 1981).

Experiments:
[1] = biological target: T1, histidine décarboxylase de rein de cobaye (Cavia porcellus, UniProt H0WB71); test: Kidney histidine decarboxylase activity after in vivo administration (method of Kosmicki et al.); conditions: guinea pigs sacrificed 5 hours after administration, reduction versus controls, read-out: Activité exprimée en % d'inhibition de l'enzyme
T1 construct: le pourcentage de réduction de l'activité de l'enzyme du rein des animaux traités; from tissue; host or cells: guinea pig kidney
T1 sequence (H0WB71 1-642): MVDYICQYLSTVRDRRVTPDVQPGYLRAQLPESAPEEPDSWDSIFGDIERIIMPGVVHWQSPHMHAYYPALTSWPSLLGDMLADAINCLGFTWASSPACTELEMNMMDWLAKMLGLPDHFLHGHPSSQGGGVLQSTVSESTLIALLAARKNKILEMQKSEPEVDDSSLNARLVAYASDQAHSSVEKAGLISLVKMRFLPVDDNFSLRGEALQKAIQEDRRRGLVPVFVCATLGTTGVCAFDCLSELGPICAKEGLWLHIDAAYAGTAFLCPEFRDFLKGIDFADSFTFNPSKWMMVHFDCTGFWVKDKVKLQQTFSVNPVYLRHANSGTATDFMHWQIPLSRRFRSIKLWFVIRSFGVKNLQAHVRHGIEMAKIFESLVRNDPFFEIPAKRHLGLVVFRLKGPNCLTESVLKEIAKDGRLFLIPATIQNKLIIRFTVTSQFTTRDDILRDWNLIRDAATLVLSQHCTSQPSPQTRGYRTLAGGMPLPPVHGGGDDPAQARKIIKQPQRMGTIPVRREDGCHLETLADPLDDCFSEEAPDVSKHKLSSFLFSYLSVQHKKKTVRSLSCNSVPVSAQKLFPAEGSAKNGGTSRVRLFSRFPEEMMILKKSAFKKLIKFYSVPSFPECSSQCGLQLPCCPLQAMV
Source text: L'activité du composé 458L a été comparée à celle de la tritoqualine qui est à la connaissance des Demandeurs, le seul produit utilisé en thérapeutique pour cette propriété. La technique de mesure de l'activité de l'histidine décarboxylase de rein de cobaye a été décrite par B. Kosmicki et al (J. Pharmacol. Paris 1974 - 5 - 3 - 331 - 342). Les cobayes ont été sacrifiés cinq heures après l'administration des substances étudiées. Il a été déterminé par rapport aux témoins le pourcentage de réduction de l'activité de l'enzyme du rein des animaux traités. Les résultats obtenus sont rapportés dans le tableau ci-dessous : […]

[2] = Acute toxicity (LD50), oral, mouse; conditions: in vivo, read-out: DL 50 (the source's name)
Source text: (§1) La toxicité a été déterminée de manière habituelle.

[3] = set-up: species or system souris; conditions: in vivo
Source text: as §1

SMILES	inhibition at 10 mg/kg [1]	inhibition at 20 mg/kg [1]	inhibition at 40 mg/kg [1]	inhibition at 60 mg/kg [1]	LD50 [2]	toxicité chronique [3]
CCOc1c(N)c2c(c(OCC)c1OCC)C(C1c3c(cc4c(c3OC)OCO4)CCN1C)OC2=O (stereo not shown) [Tritoqualine, tritoqualine, reference compound]	10%	20%	20%	22%	–	–
CCOc1c(N)c2c(c(OCC)c1OCC)C(C1c3c(cc(OC)c(OC)c3OC)CCN1C)OC2=O (stereo not shown) [458 L]	14%	21%	31%	41%	~6000 mg/kg	bonne tolérance
